Reference: patent publication US20140066365A1, “USE OF CALIXARENES ASSOCIATED WITH AN ANTIBIOTIC IN THE TREATMENT OF BACTERIAL INFECTIONS” (priority 2011, published 2014)
Converted amounts (≈) assume the structure as drawn. Read-outs that look alike come from different tables or passages of the source. Values belong to the compound of their own block, whether it stands above or below them.

Legend:
[1] = tested on: ESBL-producing strain of Escherichia coli, having an associated resistance to the aminoglycosides (EcR3); experiment: MIC of the compounds used alone, microdilution in a liquid medium (CLSI); assay type: cell-based; conditions: Escherichia coli, antibiotic alone (second value of cell), read-out: Initial MICs
Excerpt: (§1) The MICs of the antibiotics were previously defined for each strain, by the method of microdilution in a liquid medium (CLSI (Clinical and Laboratory Standards Institute), 2003).

[2] = tested on: Escherichia coli strain ATCC 25922 (wild type); experiment: as above; assay type: cell-based; conditions: Escherichia coli, ATCC25922; antibiotic alone (second value of cell); E. coli ATCC 25922; read-out: Initial MICs
Excerpt: as §1

[3] = tested on: Pseudomonas aeruginosa strain ATCC 27853 (wild type); experiment: as above; assay type: cell-based; conditions: Pseudomonas aeruginosa, ATCC27853; antibiotic alone (second value of cell); P. aeruginosa ATCC 27853; read-out: MIC
Excerpt: as §1

[4] = tested on: Pseudomonas aeruginosa strain PaR3; experiment: as above; assay type: cell-based; conditions: Pseudomonas aeruginosa, antibiotic alone (second value of cell), read-out: MIC
Excerpt: as §1

[5] = tested on: cephalosporinase-hyperproducing strain of Escherichia coli (EcR2); experiment: as above; assay type: cell-based; conditions: Escherichia coli, antibiotic alone (second value of cell), read-out: Initial MICs
Excerpt: as §1

[6] = tested on: mucoid strain of Pseudomonas aeruginosa PaR5; experiment: as above; assay type: cell-based; conditions: Pseudomonas aeruginosa, antibiotic alone (second value of cell), read-out: MIC
Excerpt: as §1

[7] = tested on: penicillinase-producing strain of Escherichia coli without associated resistance (EcR1); experiment: as above; assay type: cell-based; conditions: Escherichia coli, antibiotic alone (second value of cell), read-out: Initial MICs
Excerpt: as §1

[8] = tested on: Pseudomonas aeruginosa strain PaR2; experiment: microbe, parasite or virus in culture; assay type: cell-based; conditions: Pseudomonas aeruginosa, antibiotic alone (second value of cell), read-out: MIC
Excerpt: as §1

[9] = tested on: EcR1: Penicillinase-Producing Escherichia coli without Associated Resistance; experiment: Antibiogram by the disk diffusion technique; assay type: cell-based; conditions: for Diameter: EcR1, disk diffusion
Description: (§2) 5.1 EcR1: Penicillinase-Producing Escherichia coli without Associated Resistance The bacterial and antibiogramidentification is carried out by the VITEK 2 system (bioMérieux) and by the disk diffusion technique.

[10] = tested on: EcR3: ESBL-Producing Escherichia coli; experiment: Antibiogram by the disk diffusion technique; assay type: cell-based; conditions: for Diameter: Table C1; for diameter in mm: Table C2
Description: The bacterial and antibiogramidentification is carried out by the VITEK 2 system (bioMerieux) and by the disk diffusion technique

[11] = tested on: SaR1: Meticillin-Resistant Staphylococcus aureus without Associated Resistance; experiment: Antibiogram, MIC by the VITEK 2 system; assay type: cell-based; conditions: SaR1
Description: (§3) The bacterial and antibiogramidentification is carried out by the VITEK 2 system (bioMérieux)

[12] = tested on: PaR5: Pseudomonas aeruginosa; experiment: Antibiogram by the disk diffusion technique; assay type: cell-based; conditions: for diameter in mm: disk diffusion inhibition diameter, strain PaR5
Description: (§4) The bacterial and antibiogramidentification is carried out by the VITEK 2 system (bioMérieux) and by the disk diffusion technique

[13] = tested on: SaR3: Meticillin-Resistant Staphylococcus aureus; experiment: Antibiogram by the disk diffusion technique; assay type: cell-based
Description: as §4

[14] = tested on: SaR4: Meticillin-Resistant Staphylococcus aureus; experiment: Antibiogram, MIC by the VITEK 2 system; assay type: cell-based; conditions: Staphylococcus aureus, SaR4, read-out: MIC
Description: as §4

[15] = tested on: PaR2: Pseudomonas aeruginosa; assay type: cell-based; conditions: for Diameter: Table G1; for diameter in mm: Table G2
Description: as §4

[16] = tested on: SaR1: Meticillin-Resistant Staphylococcus aureus without Associated Resistance; experiment: Antibiogram, inhibition diameter (Table D1); assay type: cell-based
Description: as §3

[17] = tested on: Staphylococcus aureus strain ATCC 29213 (wild type); experiment: MIC of the compounds used alone, microdilution in a liquid medium (CLSI); assay type: cell-based; conditions: Staphylococcus aureus
Excerpt: as §1

[18] = as above; assay type: cell-based, Staphylococcus aureus; conditions: Staphylococcus aureus, MRSA
Excerpt: as §1

[19] = tested on: MRSA strain having a resistance to the aminoglycosides and fluoroquinolones (SaR3); experiment: as above; assay type: cell-based, Staphylococcus aureus; conditions: Staphylococcus aureus, MRSA
Excerpt: as §1

[20] = tested on: MRSA strain without associated resistance (SaR1); experiment: as above; assay type: cell-based, Staphylococcus aureus; conditions: Staphylococcus aureus, MRSA
Excerpt: as §1

[21] = tested on: Escherichia coli, Staphylococcus aureus and Pseudomonas aeruginosa strains; experiment: Chessboard technique, summary statements over all strains and combinations tested; assay type: cell-based; conditions: strain not stated
Excerpt: 1.3. Procedure: Chessboard Technique
The same procedure is followed for the Cx1. […] Thus 64 ATB/Cx1 combinations are obtained.
The FIC (Fractional Inhibitory Concentration Index) value is defined by the following formula: […]
When FIC≦0.5, there is a synergistic effect between antibiotic A and antibiotic B.
When 0.5<FIC≦1, there is an additive effect between antibiotic A and antibiotic B.
When 1<FIC≦4, there is an indifferent effect between antibiotic A and antibiotic B.
When FIC>4, there is an antagonistic effect between antibiotic A and antibiotic B.
For each strain and each antibiotic/Cx1 combination, the experiments were repeated a minimum of 3 times.

[22] = tested on: EcR1: Penicillinase-Producing Escherichia coli without Associated Resistance; experiment: Antibiogram, MIC by the VITEK 2 system; assay type: cell-based; conditions: for MIC: Escherichia coli
Description: as §2

[23] = tested on: PaR3: Pseudomonas aeruginosa; experiment: Antibiogram, MIC by the VITEK 2 system; assay type: cell-based
Description: as §3

MIC [1]: 4 µg/mL
MIC [2]: 4 µg/mL
MIC [3]: 64 µg/mL
MIC [4]: 32 µg/mL
MIC [5]: 2 µg/mL
MIC [6]: 16 µg/mL
MIC [7]: 4 µg/mL
MIC [8]: 64 µg/mL (≈ 77.8 µM)
MIC mg/L (diameter in mm) ([9]; EcR1, cells that print a diameter, Table A2): 16 mm
MIC mg/L ([11]; Table D2): ≦0.5 mg/L
MIC ([11]; Staphylococcus aureus, Table D1, read-out: MIC): ≤ 0.5 µg/mL
MIC ([14]; Table F1): ≤ 1 µg/mL
MIC ([14]; Table F2, MIC): ≤ 1 µg/mL
Structure (SMILES): CO[C@H]1/C=C/O[C@@]2(C)Oc3c(C)c(O)c4c(O)c(c(/C=N/N5CCN(C)CC5)c(O)c4c3C2=O)NC(=O)/C(C)=C\C=C\[C@H](C)[C@H](O)[C@@H](C)[C@@H](O)[C@@H](C)[C@H](OC(C)=O)[C@@H]1C [Rifampicin]
Diameter ([9]; Table A1): 16 mm
Diameter [10]: 15 mm
diameter in mm [10]: 15 mm
Diameter ([12]; PaR5, Table I1): 13 mm
diameter in mm [12]: 13 mm
Diameter ([13]; Table E1): 31 mm
diameter in mm ([13]; Table E2): 31 mm
Diameter [15]: 25 mm
diameter in mm [15]: 25 mm
Diameter [16]: 30 mm

Structure (SMILES): CN(C)c1cc(NC(=O)CNC(C)(C)C)c(O)c2c1C[C@H]1C[C@H]3[C@H](N(C)C)C(O)=C(C(N)=O)C(=O)[C@@]3(O)C(O)=C1C2=O [Tigecycline]
MIC ([17]; ATCC29213, read-out: Initial MICs (mg/L)): 0.25 mg/L
MIC [18]: 0.25 µg/mL
MIC [19]: 0.25 µg/mL
MIC [20]: 0.25 µg/mL
interaction between the antibiotic and Cx1 [21]: synergism

MIC [1]: 1 µg/mL
MIC [2]: 0.25 µg/mL
MIC [3]: 0.5 µg/mL
MIC [4]: 1 µg/mL
MIC ([17]; ATCC29213, antibiotic alone (second value of cell), S. aureus ATCC 29213, read-out: Initial MICs): 1 mg/L
MIC [5]: 0.5 µg/mL
MIC [6]: 0.5 µg/mL
MIC [7]: 0.25 µg/mL
MIC [8]: 1 µg/mL (≈ 1.71 µM)
MIC ([22]; EcR1, Table A2, read-out: MIC mg/L (diameter in mm)): ≤ 2 mg/L
MIC ([22]; EcR1, VITEK 2, Table A1, read-out: MIC): ≤ 2 mg/L
MIC ([23]; Pseudomonas aeruginosa, Table H2, read-out: MIC): 4 µg/mL (≈ 6.83 µM)
MIC ([23]; Table H1): 4 µg/mL (≈ 6.83 µM)
Structure (SMILES): NCC[C@H](O)C(=O)N[C@@H]1C[C@H](N)[C@@H](O[C@H]2O[C@H](CN)[C@@H](O)[C@H](O)[C@H]2O)[C@H](O)[C@H]1O[C@H]1O[C@H](CO)[C@@H](O)[C@H](N)[C@H]1O [Amikacin]
CA-SFM Interpretation ([22]; EcR1, MIC against Cc CA-SFM 2011): Susceptible
CLSI Interpretation ([22]; EcR1, MIC against Cc CLSI 2011): Susceptible
EUCAST Interpretation ([22]; EcR1, MIC against Cc EUCAST 2011): Susceptible
Results ([22]; EcR1, interpretation of the MIC, Table A1): Susceptible
Diameter ([9]; Table A1): 19 mm
Results ([9]; EcR1, interpretation of the diameter against Dmin Dmax, Table A1): Susceptible
CA-SFM Interpretation ([10]; Cd CA-SFM 2011): Susceptible
CLSI Interpretation ([10]; Cd CLSI 2011): Susceptible
EUCAST Interpretation ([10]; Cd EUCAST 2011): Susceptible
Diameter [10]: 17 mm
Results ([10]; Table C1, against Dmin Dmax): Susceptible
diameter in mm [10]: 17 mm
CA-SFM Interpretation ([23]; Cc CA-SFM 2011): Susceptible
CLSI Interpretation ([23]; Cc CLSI 2011): Susceptible
EUCAST Interpretation ([23]; Cc EUCAST 2011): Susceptible
Results ([23]; Table H1): Susceptible
Diameter ([12]; PaR5, Table I1): 27 mm
Results ([12]; PaR5, Table I1, against Dmin-Dmax): Susceptible
diameter in mm [12]: 27 mm
CA-SFM Interpretation ([12]; disk diffusion, PaR5, versus critical diameter CA-SFM 2011): Susceptible
CLSI Interpretation ([12]; disk diffusion, PaR5, versus critical diameter CLSI 2011): Susceptible
EUCAST Interpretation ([12]; disk diffusion, PaR5, versus critical diameter EUCAST 2011, for ** antibiotics the disk load differs and the EUCAST interpretation is not applicable): Susceptible
CA-SFM Interpretation ([15]; Cd CA-SFM 2011): Susceptible
CLSI Interpretation ([15]; Cd CLSI 2011): Susceptible
EUCAST Interpretation ([15]; Cd EUCAST 2011): Susceptible
Diameter [15]: 22 mm
Results ([15]; Table G1, against Dmin-Dmax): Susceptible
diameter in mm [15]: 22 mm
